The results in this text go back to patent US8536172B2, “Inhibitors of JNK” (Roche Palo Alto LLC, priority 2009, dated 2013).

For one test, the target named is Human JNK2α2 (Homo sapiens (Human), UniProt P45984). The experiment in a line: JNK assay in vitro: phosphorylation of GST-ATF2 (19-96) with [γ-33P] ATP, JNK2. The class given is biochemical. The following applies: 1 nM enzyme, 1 μM ATF2, 8 μM ATP (Km), 30° C. 30 min. The procedure: (§1) JNK activity was measured by phosphorylation of GST-ATF2 (19-96) with [γ-^33P] ATP. […] Human JNK2α2 assay contains 1 nM enzyme, 1 μM ATF2, 8 μM ATP with 1 uCi [γ-^33P] ATP. Human JNK1α1 assay contains 2 nM enzyme, 1 μM ATF2, 6 μM ATP with 1 μCi [γ-^33P] ATP. Human JNK3 (Upstate Biotech #14-501M) assay contains 2 nM enzyme, 1 μM ATF2, 4 μM ATP with 1 μCi [γ-^33P] ATP. The enzyme assay was carried out in the presence or absence of several compound concentrations. JNK and compound were pre-incubated for 10 min., followed by initiation of the enzymatic reaction by adding ATP and the substrate. The reaction mixture was incubated at 30° C. for 30 min. At the end of incubation, the reaction was terminated by transferring 25 μl of the reaction mixture to 150 μl of 10% glutathione Sepharose® slurry (Amersham #27-4574-01) containing 135 mM EDTA. The reaction product was captured on the affinity resin, and washed on a filtration plate (Millipore, MABVNOB50) with phosphate buffered saline for six times to remove free radionucleotide. The incorporation of ^33P into ATF2 was quantified on a microplate scintillation counter (Packard Topcount). Compound inhibition potency on JNK was measured by IC50 value generated from ten concentration inhibition curves fitted into the 3-parameter model: % inhibition=Maximum/(1+(IC50/[Inhibitor])^slope). Data were analyzed on Microsoft Excel for parameter estimation.

A further test addresses Human JNK1α1 (Homo sapiens (Human), UniProt P45983). The experiment in a line: JNK assay in vitro: phosphorylation of GST-ATF2 (19-96) with [γ-33P] ATP, JNK1. Format: biochemical. To be noted: 2 nM enzyme, 1 μM ATF2, 6 μM ATP (Km), 30° C. 30 min. The procedure:
as §1, with “Human JNK3 (Upstate Biotech #14-501M) assay contains 2 nM enzyme, 1 μM ATF2, 4 μM ATP with 1 μCi [γ-^33P]” left out, “At the end of incubation, the reaction was terminated by transferring 25 μl of the reaction mixture to 150 μl of 10% glutathione Sepharose® slurry (Amersham #27-4574-01) containing 135 mM EDTA. The reaction product was captured on the affinity resin, and washed on a filtration plate (Millipore, MABVNOB50) with phosphate buffered saline for six times to remove free radionucleotide.” left out

Chain of Human JNK2α2 (P45984 whole entry): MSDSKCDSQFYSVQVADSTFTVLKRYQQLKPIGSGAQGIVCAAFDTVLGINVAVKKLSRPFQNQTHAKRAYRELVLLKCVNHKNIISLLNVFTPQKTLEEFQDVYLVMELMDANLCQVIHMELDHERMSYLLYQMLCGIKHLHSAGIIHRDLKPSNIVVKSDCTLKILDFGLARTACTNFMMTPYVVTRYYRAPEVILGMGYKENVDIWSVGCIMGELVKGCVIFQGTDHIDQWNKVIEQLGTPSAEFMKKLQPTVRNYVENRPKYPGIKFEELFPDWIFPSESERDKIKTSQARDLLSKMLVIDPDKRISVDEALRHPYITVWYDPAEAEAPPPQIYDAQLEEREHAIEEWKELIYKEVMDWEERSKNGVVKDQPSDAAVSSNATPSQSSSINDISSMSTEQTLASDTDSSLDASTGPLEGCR
Chain of Human JNK1α1 (P45983 other isoform, or with tags, fused parts or gaps): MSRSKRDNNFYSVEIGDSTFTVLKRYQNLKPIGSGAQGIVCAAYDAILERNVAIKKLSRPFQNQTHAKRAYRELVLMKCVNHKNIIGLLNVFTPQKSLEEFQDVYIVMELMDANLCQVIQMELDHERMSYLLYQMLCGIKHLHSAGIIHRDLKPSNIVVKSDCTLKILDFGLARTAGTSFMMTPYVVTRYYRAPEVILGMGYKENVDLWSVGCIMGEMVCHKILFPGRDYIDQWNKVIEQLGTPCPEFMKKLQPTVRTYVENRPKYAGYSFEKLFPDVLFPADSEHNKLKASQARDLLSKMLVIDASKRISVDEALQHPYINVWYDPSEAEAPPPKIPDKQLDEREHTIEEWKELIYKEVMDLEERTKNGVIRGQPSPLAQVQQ

As usually defined, the IC50 is the concentration that inhibits the measured activity by half. Higher therefore signals weaker potency in that assay. In the case of `CS(=O)(=O)N[C@H]1CC[C@H](Nc2nccc(-n3ccc4c(N5CCN(C(=O)CN)CC5)cccc43)n2)CC1` [Compound I-24, N-[4-(4-{4-[4-(2-Amino-acetyl)-piperazin-1-yl]-indol-1-yl}-pyrimidin-2-ylamino)-cyclohexyl]-methanesulfonamide], the IC50 against Human JNK2α2 came out at 477 nM; at Human JNK1α1, 77.7 nM.

As to `N#CCC(=O)N1CCN(c2cccc3c2ccn3-c2ccnc(N[C@H]3CC[C@H](CN4CC[C@@H](O)C4)CC3)n2)CC1` [Compound I-25, 3-[4-(1-{2-[4-((R)-3-Hydroxy-pyrrolidin-1-ylmethyl)-cyclohexylamino]-pyrimidin-4-yl}-1H-indol-4-yl)-piperazin-1-yl]-3-oxo-propionitrile], the IC50 came to 25.6 nM at Human JNK2α2 and 4.2 nM on Human JNK1α1.

With `CC(=O)OCC(=O)N1CCN(c2cccc3c2ccn3-c2ccnc(N[C@H]3CC[C@H](NS(C)(=O)=O)CC3)n2)CC1` [Compound I-10, Acetic acid 2-(4-{1-[2-(4-methanesulfonylamino-cyclohexylamino)-pyrimidin-4-yl]-1H-indol-4-yl}-piperazin-1-yl)-2-oxo-ethyl ester], the IC50 came to 74.9 nM at Human JNK2α2 and 10.4 nM on Human JNK1α1.

In the case of `CC(=O)N1CCN(c2cccc3c2ccn3-c2ccnc(N[C@H]3CC[C@H](N(C)S(C)(=O)=O)CC3)n2)CC1` [Compound I-5, N-(4-{4-[4-(4-Acetyl-piperazin-1-yl)-indol-1-yl]-pyrimidin-2-ylamino}-cyclohexyl)-N-methyl-methanesulfonamide], the IC50 was 105 nM against Human JNK2α2 and 10.3 nM against Human JNK1α1.

For the compound `CN(C)CC(=O)N1CCN(c2cccc3c2ccn3-c2ccnc(N[C@H]3CC[C@H](NS(C)(=O)=O)CC3)n2)CC1` [Compound I-23, N-[4-(4-{4-[4-(2-Dimethylamino-acetyl)-piperazin-1-yl]-indol-1-yl}-pyrimidin-2-ylamino)-cyclohexyl]-methanesulfonamide], the IC50 was 1630 nM on Human JNK2α2 and 378 nM against Human JNK1α1.

On to `CC(=O)N[C@H]1CC[C@H](Nc2nccc(-n3ccc4c(N5CCC(S(C)(=O)=O)CC5)cccc43)n2)CC1` [Compound I-13, N-(4-{4-[4-(4-Methanesulfonyl-piperidin-1-yl)-indol-1-yl]-pyrimidin-2-ylamino}-cyclohexyl)-acetamide], for which the figures for the IC50 at Human JNK2α2 and against Human JNK1α1 were 49.3 nM and 6.6 nM, respectively.

For the compound `CCN1CCN(C(=O)[C@H]2CC[C@H](Nc3nccc(-n4ccc5c(N6CCN(C(=O)CC#N)CC6)cccc54)n3)CC2)CC1` [Compound I-56, 3-[4-(1-{2-[4-(4-Ethyl-piperazine-1-carbonyl)-cyclohexylamino]-pyrimidin-4-yl}-1H-indol-4-yl)-piperazin-1-yl]-3-oxo-propionitrile], the IC50 is 18.7 nM against Human JNK2α2 and 9.2 nM at Human JNK1α1.

Turning to `N#CCC(=O)N1CCN(c2cccc3c2ccn3-c2ccnc(N[C@H]3CC[C@H](O)CC3)n2)CC1` [Compound I-55, 3-(4-{1-[2-(4-Hydroxy-cyclohexylamino)-pyrimidin-4-yl]-1H-indol-4-yl}-piperazin-1-yl)-3-oxo-propionitrile], the IC50 against Human JNK2α2 was 23.1 nM; against Human JNK1α1, 4.4 nM.

For `CS(=O)(=O)C[C@H]1CC[C@H](Nc2nccc(-n3ccc4c(N5CCN(C(=O)CC#N)CC5)cccc43)n2)CC1` [Compound I-42, 3-(4-{1-[2-(4-Methanesulfonylmethyl-cyclohexylamino)-pyrimidin-4-yl]-1H-indol-4-yl}-piperazin-1-yl)-3-oxo-propionitrile], the IC50 was 13.6 nM on Human JNK2α2 and 2.4 nM against Human JNK1α1.

Take `CC(=O)N1CCN(c2cccc3c2ccn3-c2ccnc(N[C@H]3CC[C@H](C(=O)N4CCC(O)CC4)CC3)n2)[C@H](C)C1` [Compound I-21, 1-[(R)-4-(1-{2-[4-(4-Hydroxy-piperidine-1-carbonyl)-cyclohexylamino]-pyrimidin-4-yl}-1H-indol-4-yl)-3-methyl-piperazin-1-yl]-ethanone]: the 50% inhibitory concentration (IC50) stood at 138 nM on Human JNK2α2 and 31.2 nM against Human JNK1α1.

Turning to `O[C@H]1CC[C@H](Nc2nccc(-n3ccc4c(N5CCCCC5)cccc43)n2)CC1` [Compound I-2, 4-[4-(4-Piperidin-1-yl-indol-1-yl)-pyrimidin-2-ylamino]-cyclohexanol], the 50% inhibitory concentration (IC50) at Human JNK2α2 came out at 654 nM; against Human JNK1α1 it was 93.9 nM.

As for `CS(=O)(=O)N[C@H]1CC[C@H](Nc2nccc(-n3ccc4c(N5CCC(O)CC5)cccc43)n2)CC1` [Compound I-4, N-(4-{4-[4-(4-Hydroxy-piperidin-1-yl)-indol-1-yl]-pyrimidin-2-ylamino}-cyclohexyl)-methanesulfonamide], the IC50 is 292 nM against Human JNK2α2 and 42.9 nM against Human JNK1α1.

As to `CS(=O)(=O)C1CCN(c2cccc3c2cnn3-c2ccnc(N[C@H]3CC[C@H](O)CC3)n2)CC1` [Compound I-66, 4-{4-[4-(4-Methanesulfonyl-piperidin-1-yl)-indazol-1-yl]-pyrimidin-2-ylamino}-cyclohexanol], the IC50 came to 16.7 nM against Human JNK2α2 and 5.8 nM against Human JNK1α1.

For `CS(=O)(=O)C1CCN(c2cccc3c2ccn3-c2ccnc(N[C@H]3CC[C@H](C(=O)N4CCn5c(nnc5C(F)(F)F)C4)CC3)n2)CC1` [Compound I-51, (4-{4-[4-(4-Methanesulfonyl-piperidin-1-yl)-indol-1-yl]-pyrimidin-2-ylamino}-cyclohexyl)-(3-trifluoromethyl-5,6-dihydro-8H-[1,2,4]triazolo[4,3-a]pyrazin-7-yl)-methanone], the IC50 against Human JNK2α2 was 6.2 nM; at Human JNK1α1, 3.6 nM.
